Source: patent US20240425491A1, “HETEROARYL COMPOUNDS USEFUL IN THE TREATMENT OF COGNITIVE DISORDERS” (University College Cardiff Consultants Limited, priority 2021, published 2024)

How the values were obtained:
[1] = molecular target: T1, human recombinant GABAAR containing α5β3γ2 subunits (benzodiazepine site) (Homo sapiens, UniProt P18507+P31644); assay: In vitro radioligand binding assay (α5-GABAAR Ki); settings: inhibition of [3H]Ro15-1788 binding, membranes of L(tk−) cells expressing human α5β3γ2; read-out: α5-GABAAR Ki
T1 construct: expressed in transfected cells; host or cells: mouse L(tk−) cells, dexamethasone-inducible vector pMSGneo
T1 sequence (P31644 32-462): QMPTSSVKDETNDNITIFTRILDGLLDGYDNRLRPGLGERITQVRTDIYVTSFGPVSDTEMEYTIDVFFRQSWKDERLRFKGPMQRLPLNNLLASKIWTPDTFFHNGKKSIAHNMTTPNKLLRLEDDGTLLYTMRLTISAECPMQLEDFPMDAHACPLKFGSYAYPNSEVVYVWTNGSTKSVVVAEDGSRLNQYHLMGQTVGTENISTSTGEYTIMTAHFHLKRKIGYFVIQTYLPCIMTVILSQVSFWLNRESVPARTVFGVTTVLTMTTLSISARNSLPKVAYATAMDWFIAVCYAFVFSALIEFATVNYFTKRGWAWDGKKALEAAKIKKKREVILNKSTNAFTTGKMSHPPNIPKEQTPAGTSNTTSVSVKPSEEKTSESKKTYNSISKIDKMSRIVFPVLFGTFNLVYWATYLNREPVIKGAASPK
T1 sequence (P28472 26-473 partner): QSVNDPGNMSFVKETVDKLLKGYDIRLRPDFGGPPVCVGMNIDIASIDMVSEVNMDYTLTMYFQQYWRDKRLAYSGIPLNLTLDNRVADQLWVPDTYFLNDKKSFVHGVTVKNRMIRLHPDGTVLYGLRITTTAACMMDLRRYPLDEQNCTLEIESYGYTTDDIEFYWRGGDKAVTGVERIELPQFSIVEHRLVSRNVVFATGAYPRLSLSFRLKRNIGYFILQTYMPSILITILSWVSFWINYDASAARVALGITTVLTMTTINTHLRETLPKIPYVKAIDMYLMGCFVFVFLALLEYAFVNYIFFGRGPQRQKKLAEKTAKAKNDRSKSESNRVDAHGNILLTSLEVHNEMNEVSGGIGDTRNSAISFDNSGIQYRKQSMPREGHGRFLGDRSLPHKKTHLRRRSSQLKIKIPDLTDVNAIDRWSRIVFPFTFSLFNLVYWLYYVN
T1 sequence (P18507 40-475): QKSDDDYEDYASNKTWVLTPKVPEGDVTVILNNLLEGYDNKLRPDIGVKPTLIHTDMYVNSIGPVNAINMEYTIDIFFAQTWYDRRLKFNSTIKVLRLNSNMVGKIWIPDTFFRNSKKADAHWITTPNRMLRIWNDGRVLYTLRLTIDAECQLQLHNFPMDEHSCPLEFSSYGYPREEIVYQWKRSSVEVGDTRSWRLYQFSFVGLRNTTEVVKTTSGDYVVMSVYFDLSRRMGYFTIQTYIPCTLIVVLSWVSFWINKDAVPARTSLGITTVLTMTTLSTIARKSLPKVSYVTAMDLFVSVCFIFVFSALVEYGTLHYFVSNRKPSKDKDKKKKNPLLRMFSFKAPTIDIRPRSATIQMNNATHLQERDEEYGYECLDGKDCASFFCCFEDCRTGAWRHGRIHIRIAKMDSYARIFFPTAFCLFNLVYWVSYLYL
Procedure, shortened: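 Membranes from mouse L(tk^−) cells stably expressing human α5β3γ2 GABAAR incubated 1 h at 4° C with 4 nM [^3H]Ro15-1788 and test compound; nonspecific binding with 1 μM TP003. Filter-bound radioactivity counted; Ki from IC50 by Cheng-Prusoff using measured Kd.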

[2] = molecular target: T2, human α5β3γ2 GABAARs in mouse L(tk−) cells (Homo sapiens, UniProt P18507+P31644); assay: In vitro electrophysiological recording assay (α5-GABAAR relative efficacy), QPatch; format: cell-based; settings: GABA EC10-20
T2 construct: expressed in transfected cells; host or cells: mouse L(tk−) cells, dexamethasone-inducible vector pMSGneo
T2 sequence (P31644 32-462): as the sequence (P31644 32-462) above
T2 sequence (P28472 26-473 partner): as the sequence (P28472 26-473 partner) above
T2 sequence (P18507 40-475): as the sequence (P18507 40-475) above
Procedure, shortened: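 Whole-cell QPatch recordings at 20-22° C, −65 mV holding, in dexamethasone-induced (1 μM, 24 h) L(tk−) cells. Compound pre-applied ≥1 min, then co-applied with GABA EC10-20; percentage change in leak-corrected peak current, taken at ≥100× Ki, normalised to DMCM efficacy; 0.1% DMSO final.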

| SMILES | Ki [1] | α5-GABAAR Relative Efficacy (to DMCM), Qpatch ([2]; Conc 1 μM) | α5-GABAAR Relative Efficacy (to DMCM), Qpatch ([2]; Conc 0.3 μM) | other results |
| --- | --- | --- | --- | --- |
| COc1nc(-c2cccc3c2CNC3=O)ccc1NC(=O)c1c(-c2ccccc2)noc1C [Example 97, N-(2-Methoxy-6-(1-oxoisoindolin-4-yl)pyridin-3-yl)-5-methyl-3-phenylisoxazole-4-carboxamide] | 19.1 nM | – | – | α5-GABAAR Relative Efficacy (to DMCM), Qpatch ([2]; Conc 3 μM): −0.67 |
| COc1nc(-c2ccc(N3CC[C@@H](O)C3)nc2)ccc1NC(=O)c1c(-c2ccccc2)noc1C [Example 99, (R)—N-(6′-(3-Hydroxypyrrolidin-1-yl)-6-methoxy-[2,3′-bipyridin]-5-yl)-5-methyl-3-phenylisoxazole-4-carboxamide] | 6.7 nM | −0.70 | – | – |
| COc1nc(-c2cnc3cnn(C)c3c2)ccc1NC(=O)c1c(-c2ccccc2)noc1C [Example 100, N-(2-Methoxy-6-(1-methyl-1H-pyrazolo[4,3-b]pyridin-6-yl)pyridin-3-yl)-5-methyl-3-phenylisoxazole-4-carboxamide] | 3 nM | – | −0.72 | – |
| COc1nc(-c2cnnn2C)ccc1NC(=O)c1c(-c2ccccc2)noc1C [Example 102, N-(2-Methoxy-6-(1-methyl-1H-1,2,3-triazol-5-yl)pyridin-3-yl)-5-methyl-3-phenyl-isoxazole-4-carboxamide] | 1.5 nM | – | −0.79 | – |
| CNc1cc(-c2ccc(NC(=O)c3c(-c4ccccc4)noc3C)c(OC)n2)ccn1 [Example 103, N-(6-Methoxy-2′-(methylamino)-[2,4′-bipyridin]-5-yl)-5-methyl-3-phenylisoxazole-4-carboxamide] | 6.6 nM | −0.78 | – | – |
| COc1nc(-c2ccnnc2)ccc1NC(=O)c1c(-c2ccccc2)noc1C [Example 104, N-(2-Methoxy-6-(pyridazin-4-yl)pyridin-3-yl)-5-methyl-3-phenylisoxazole-4-carboxamide] | 1.7 nM | – | −0.68 | – |
| COc1nc(-c2cnc3c(c2)OCO3)ccc1NC(=O)c1c(-c2ccccc2)noc1C [Example 106, N-(6-([1,3] Dioxolo[4,5-b]pyridin-6-yl)-2-methoxypyridin-3-yl)-5-methyl-3-phenylisoxazole-4-carboxamide] | 11.4 nM | – | – | α5-GABAAR Relative Efficacy (to DMCM), Qpatch ([2]; Conc 3 μM): −0.40 |
| COc1nc(-c2ccc(NC(C)=O)nc2)ccc1NC(=O)c1c(-c2ccccc2)noc1C [Example 108, N-(6′-Acetamido-6-methoxy-[2,3′-bipyridin]-5-yl)-5-methyl-3-phenylisoxazole-4-carboxamide] | 3.1 nM | −0.81 | – | – |
| COc1nc(-c2cnn(-c3ccncc3)c2)ccc1NC(=O)c1c(-c2ccccc2)noc1C [Example 110, N-(2-Methoxy-6-(1-(pyridin-4-yl)-1H-pyrazol-4-yl)pyridin-3-yl)-5-methyl-3-phenylisoxazole-4-carboxamide] | 29.1 nM | – | – | α5-GABAAR Relative Efficacy (to DMCM), Qpatch ([2]; Conc 3 μM): −0.53 |
| COc1nc(-c2ccc3c(c2)nc(C)n3C)ccc1NC(=O)c1c(-c2ccccc2)noc1C [Example 111, N-(6-(1,2-Dimethyl-1H-benzo[d]imidazol-5-yl)-2-methoxypyridin-3-yl)-5-methyl-3-phenylisoxazole-4-carboxamide] | 13.1 nM | – | – | α5-GABAAR Relative Efficacy (to DMCM), Qpatch ([2]; Conc 3 μM): −0.46 |
| COc1nc(-c2ccc3c(c2)COC(=O)N3)ccc1NC(=O)c1c(-c2ccccc2)noc1C [Example 119, N-(2-Methoxy-6-(2-oxo-1,4-dihydro-2H-benzo[d] [1,3]oxazin-6-yl)pyridin-3-yl)-5-methyl-3-phenylisoxazole-4-carboxamide] | 13.8 nM | – | – | α5-GABAAR Relative Efficacy (to DMCM), Qpatch ([2]; Conc 3 μM): −0.63 |
| COc1nc(-c2cnoc2)cnc1NC(=O)c1c(-c2ccccc2)noc1C [Example 120, N-(5-Isoxazol-4-yl-3-methoxy-pyrazin-2-yl)-5-methyl-3-phenyl-isoxazole-4-carboxamide] | 4.6 nM | −0.73 | – | – |
| COc1nc(-c2ncc[nH]2)ccc1NC(=O)c1c(-c2ccccc2)noc1C [Example 121, N-[6-(1H-Imidazol-2-yl)-2-methoxy-3-pyridyl]-5-methyl-3-phenyl-isoxazole-4-carboxamide] | 2.1 nM | – | −0.36 | – |
| COc1nc(-c2ncco2)ccc1NC(=O)c1c(-c2ccccc2)noc1C [Example 123, N-(2-Methoxy-6-oxazol-2-yl-3-pyridyl)-5-methyl-3-phenyl-isoxazole-4-carboxamide] | 11.8 nM | – | – | α5-GABAAR Relative Efficacy (to DMCM), Qpatch ([2]; Conc 3 μM): −0.48 |
| COc1nc(-c2cnoc2)ccc1NC(=O)c1c(C)nnn1-c1ccccc1 [Example 124, N-(6-(Isoxazol-4-yl)-2-methoxypyridin-3-yl)-4-methyl-1-phenyl-1H-1,2,3-triazole-5-carboxamide] | 23.6 nM | – | – | α5-GABAAR Relative Efficacy (to DMCM), Qpatch ([2]; Conc 3 μM): −1.40 |
| COCc1ncc(-c2ccc(NC(=O)c3c(-c4ccccc4)noc3C)c(OC)n2)cn1 [Example 125, N-[2-Methoxy-6-[2-(methoxymethyl)pyrimidin-5-yl]-3-pyridyl]-5-methyl-3-phenyl-isoxazole-4-carboxamide] | 2.5 nM | – | −0.84 | – |
| COc1ccc(-c2ccc(NC(=O)c3c(-c4ccccc4)noc3C)c(OC)n2)nn1 [Example 128, N-[2-Methoxy-6-(6-methoxypyridazin-3-yl)-3-pyridyl]-5-methyl-3-phenyl-isoxazole-4-carboxamide] | 46.7 nM | – | – | α5-GABAAR Relative Efficacy (to DMCM), Qpatch ([2]; Conc 10 μM): −0.19 |
| COc1nc(-c2cnc(C(=O)N(C)C)nc2)ccc1NC(=O)c1c(-c2ccccc2)noc1C [Example 130, N-[6-[2-(Dimethylcarbamoyl)pyrimidin-5-yl]-2-methoxy-3-pyridyl]-5-methyl-3-phenyl-isoxazole-4-carboxamide] | 2.3 nM | – | −0.55 | – |
| COc1nc(-c2ccn3nc(N(C)C)nc3c2)ccc1NC(=O)c1c(-c2ccccc2)noc1C.Cl [Example 131, N-[6-[2-(Dimethylamino)-[1,2,4]triazolo[1,5-a]pyridin-7-yl]-2-methoxy-3-pyridyl]-5-methyl-3-phenyl-isoxazole-4-carboxamide hydrochloride] | 9.8 nM | −0.67 | – | – |
| COc1nc(-c2cncn2C)ccc1NC(=O)c1c(-c2ccccc2)noc1C [Example 132, N-[2-Methoxy-6-(3-methylimidazol-4-yl)-3-pyridyl]-5-methyl-3-phenyl-isoxazole-4-carboxamide] | 4 nM | −0.52 | – | – |
| COc1nc(-c2c[nH]c(=O)c(F)c2)cnc1NC(=O)c1c(-c2ccccc2)noc1C [Example 133, N-[5-(5-Fluoro-6-oxo-1H-pyridin-3-yl)-3-methoxy-pyrazin-2-yl]-5-methyl-3-phenyl-isoxazole-4-carboxamide] | 4.1 nM | −0.75 | – | – |
| COc1nc(-c2cnc3cnccn23)ccc1NC(=O)c1c(-c2ccccc2)noc1C [Example 135, N-(6-(Imidazo[1,2-a]pyrazin-3-yl)-2-methoxypyridin-3-yl)-5-methyl-3-phenylisoxazole-4-carboxamide] | 1 nM | – | −0.85 | – |
| COc1nc(-c2cnc3ncccn23)ccc1NC(=O)c1c(-c2ccccc2)noc1C [Example 136, N-(6-(Imidazo[1,2-a]pyrimidin-3-yl)-2-methoxypyridin-3-yl)-5-methyl-3-phenylisoxazole-4-carboxamide] | 3.3 nM | −0.60 | – | – |
| COc1nc(-c2cnc3n2CCNC3)ccc1NC(=O)c1c(-c2ccccc2)noc1C.Cl [Example 138, N-(2-Methoxy-6-(5,6,7,8-tetrahydroimidazo[1,2-a]pyrazin-3-yl)pyridin-3-yl)-5-methyl-3-phenylisoxazole-4-carboxamide hydrochloride] | 3.2 nM | −0.62 | – | – |
| COc1nc(-n2cnc(C#N)c2)ccc1NC(=O)c1c(-c2ccccc2)noc1C [Example 139, N-[6-(4-Cyanoimidazol-1-yl)-2-methoxy-3-pyridyl]-5-methyl-3-phenyl-isoxazole-4-carboxamide] | 1.9 nM | – | −0.90 | – |
| COc1nc(-n2cnc(C(F)(F)F)c2)ccc1NC(=O)c1c(-c2ccccc2)noc1C [Example 140, N-[2-Methoxy-6-[4-(trifluoromethyl)imidazol-1-yl]-3-pyridyl]-5-methyl-3-phenyl-isoxazole-4-carboxamide] | 5.7 nM | −0.79 | – | – |
| CCOc1ncc(-c2cnc(NC(=O)c3c(-c4ccccc4)noc3C)c(OC)n2)cn1 [Example 142, N-[5-(2-Ethoxypyrimidin-5-yl)-3-methoxy-pyrazin-2-yl]-5-methyl-3-phenyl-isoxazole-4-carboxamide] | 2.9 nM | – | −0.85 | – |
| CNc1ncc(-c2cnc(NC(=O)c3c(-c4ccccc4)noc3C)c(OC)n2)cn1 [Example 145, N-[3-Methoxy-5-[2-(methylamino)pyrimidin-5-yl]pyrazin-2-yl]-5-methyl-3-phenyl-isoxazole-4-carboxamide] | 0.3 nM | – | – | α5-GABAAR Relative Efficacy (to DMCM), Qpatch ([2]; Conc 0.1 μM): −1.12 |
| COc1nc(-c2ccc(NC(C)=O)nc2)cnc1NC(=O)c1c(-c2ccccc2)noc1C [Example 147, N-[5-(6-Acetamido-3-pyridyl)-3-methoxy-pyrazin-2-yl]-5-methyl-3-phenyl-isoxazole-4-carboxamide] | 0.5 nM | – | – | α5-GABAAR Relative Efficacy (to DMCM), Qpatch ([2]; Conc 0.1 μM): −0.67 |
